Results taken from US10662182B2, “Microbiocidal thiazole derivatives” (SYNGENTA PARTICIPATIONS AG, priority 2016, dated 2020).

Columns and labels:
[1] = tested on: Mycosphaerella arachidis (Cercospora arachidicola); assay: Mycosphaerella arachidis / liquid culture (early leaf spot); format: cell-based; conditions: 200 ppm in the formulation, inhibition of growth determined photometrically, compared to untreated checks, read-out: disease control
Protocol: Mycosphaerella arachidis (Cercospora arachidicola)/Liquid Culture (Early Leaf Spot) Conidia of the fungus from cryogenic storage are directly mixed into nutrient broth (PDB potato dextrose broth). After placing a (DMSO) solution of test compound into a microtiter plate (96-well format), the nutrient broth containing the fungal spores is added. The test plates are incubated at 24° C. and the inhibition of growth is determined photometrically 4-5 days after application.

[2] = tested on: Gaeumannomyces graminis; assay: Gaeumannomyces graminis / liquid culture (take-all of cereals); format: cell-based; conditions: 200 ppm in the formulation, inhibition of growth determined photometrically, compared to untreated control, read-out: disease control
Protocol: Gaeumannomyces graminis/Liquid Culture (Take-All of Cereals) Mycelial fragments of the fungus from cryogenic storage were directly mixed into nutrient broth (PDB potato dextrose broth). After placing a (DMSO) solution of test compound into a microtiter plate (96-well format), the nutrient broth containing the fungal spores is added. The test plates are incubated at 24° C. and the inhibition of growth is determined photometrically 4-5 days after application.

[3] = tested on: Blumeria graminis f. Sp. Tritici (Erysiphe graminis f. Sp. Tritici); assay: Blumeria graminis f. sp. tritici / wheat / leaf disc preventative (powdery mildew on wheat); format: in vivo; conditions: foliar, 200 ppm in the formulation, wheat leaf segments cv. Kanzler, compared to untreated checks, read-out: disease control
Excerpt: Blumeria graminis f. Sp. Tritici (Erysiphe graminis f. Sp. Tritici)/Wheat/Leaf Disc Preventative (Powdery Mildew on Wheat) Wheat leaf segments cv. Kanzler are placed on agar in a multiwell plate (24-well format) and sprayed with the test compound formulated with DMSO and Tween20 and diluted in water. The leaf disks are inoculated by shaking powdery mildew infected plants above the test plates 1 day after application.

[4] = tested on: Botrvotinia fuckeliana (Botrvtis cinerea); assay: Botryotinia fuckeliana / liquid culture (gray mould); format: cell-based; conditions: Botrytis cinerea, 200 ppm in the formulation, inhibition of growth determined photometrically, compared to untreated checks, read-out: disease control
Protocol: Botrvotinia fuckeliana (Botrvtis cinerea)/Liquid Culture (Gray Mould) Conidia of the fungus from cryogenic storage are directly mixed into nutrient broth (Vogels broth). After placing a (DMSO) solution of test compound into a microtiter plate (96-well format), the nutrient broth containing the fungal spores is added. The test plates are incubated at 24° C. and the inhibition of growth is determined photometrically 3-4 days after application.

[5] = tested on: Magnaporthe risea (Pyricularia oryzae); assay: whole plant or invertebrate; format: in vivo; conditions: foliar, read-out: disease control
[6] = tested on: Puccinia recondita f. Sp. Tritici; assay: Puccinia recondita f. sp. tritici / wheat / leaf disc preventative (brown rust); format: in vivo; conditions: foliar, 200 ppm in the formulation, wheat leaf segments cv. Kanzler, compared to untreated checks, read-out: disease control
[7] = tested on: Pyrenophora teres; assay: Pyrenophora teres / barley / leaf disc preventative (net blotch); format: in vivo; conditions: foliar, 200 ppm of the formulation, barley leaf segments cv. Hasso, compared to untreated checks, read-out: disease control
Protocol: Pyrenophora teres/Barley/Leaf Disc Preventative (Net Blotch) Barley leaf segments cv. Hasso are placed on agar in a multiwell plate (24-well format) and sprayed with the test compound formulated with DMSO and Tween20 and diluted in water. The leaf segments are inoculated with a spore suspension of the fungus 2 days after application. The inoculated leaf segments are incubated at 20° C. and 65% rh under a light regime of 12 h light/12 h darkness in a climate cabinet and the activity of a compound is assessed as disease control compared to untreated when an appropriate level of disease damage appears in untreated check leaf segments (5 to 7 days after application).

[8] = tested on: Glomerella lacenarium (Colletotrichum lacenarium); assay: Glomerella lagenarium / liquid culture (anthracnose); format: cell-based; conditions: 200 ppm in the formulation, inhibition of growth measured photometrically, compared to untreated checks, read-out: disease control
Protocol: Glomerella lacenarium (Colletotrichum lacenarium)/Liquid Culture (Anthracnose) Conidia of the fungus from cryogenic storage are directly mixed into nutrient broth (PDB potato dextrose broth). After placing a (DMSO) solution of test compound into a microtiter plate (96-well format), the nutrient broth containing the fungal spores is added. The test plates are incubated at 24° C. and the inhibition of growth is measured photometrically 3 to 4 days after application.

[9] = tested on: Monocraphella nivalis (Microdochium nivale); assay: Monographella nivalis / liquid culture (foot rot cereals); format: cell-based; conditions: 200 ppm in the formulation, inhibition of growth determined photometrically, compared to untreated checks, read-out: disease control
Protocol: Monocraphella nivalis (Microdochium nivale)/Liquid Culture (Foot Rot Cereals) Conidia of the fungus from cryogenic storage are directly mixed into nutrient broth (PDB potato dextrose broth). After placing a (DMSO) solution of test compound into a microtiter plate (96-well format), the nutrient broth containing the fungal spores is added. The test plates are incubated at 24° C. and the inhibition of growth is determined photometrically 4-5 days after application.

[10] = tested on: Mycosphaerella raminicola (Septoria tritici); assay: Mycosphaerella graminicola / liquid culture (Septoria blotch); format: cell-based; conditions: 200 ppm in the formulation, inhibition of growth determined photometrically, compared to untreated checks, read-out: disease control
Protocol: Mycosphaerella raminicola (Septoria tritici)/Liquid Culture (Septoria blotch) Conidia of the fungus from cryogenic storage are directly mixed into nutrient broth (PDB potato dextrose broth). After placing a (DMSO) solution of test compound into a microtiter plate (96-well format), the nutrient broth containing the fungal spores is added. The test plates are incubated at 24° C. and the inhibition of growth is determined photometrically 4 to 5 days after application.

CC1(C)C2CCCC2C1NC(=O)c1nc(Nc2cc(F)cc(F)c2)sc1Br (stereo not shown) [I.y.2, 5-bromo-2-(3,5-difluoroanilino)-N-(6,6-dimethyl-7-bicyclo[3.2.0]heptanyl)thiazole-4-carboxamide]
≥ 80%: inhibition of growth at 200 ppm [1] | inhibition of growth at 200 ppm [2] | pest or weed control at 200 ppm [3] | inhibition of growth at 200 ppm [4] | pest or weed control at 200 ppm [5] | pest or weed control at 200 ppm [6] | pest or weed control at 200 µg/mL [7] | inhibition of growth at 200 ppm [8] | inhibition of growth at 200 ppm [9] | inhibition of growth at 200 ppm [10]

CC12CCCC(NC(=O)c3nc(Nc4cc(F)cc(F)c4)sc3Br)C1CC2 (stereo not shown) [I.ah.2, 5-bromo-2-(3,5-difluoroanilino)-N-(6-methyl-2-bicyclo[4.2.0]octanyl)thiazole-4-carboxamide]
≥ 80%: inhibition of growth at 200 ppm [2] | pest or weed control at 200 ppm [3] | inhibition of growth at 200 ppm [4] | pest or weed control at 200 ppm [5] | pest or weed control at 200 ppm [6] | inhibition of growth at 200 ppm [8] | inhibition of growth at 200 ppm [9] | inhibition of growth at 200 ppm [10]

Cc1sc(Nc2cc(F)cc(F)c2)nc1C(=O)NC(C)(C#N)C(C)C (stereo not shown) [Compound I.n.3, N-(1-cyano-1,2-dimethyl-propyl)-2-(3,5-difluoroanilino)-5-methyl-thiazole-4-carboxamide]
≥ 80%: inhibition of growth at 200 ppm [1] | inhibition of growth at 200 ppm [2] | pest or weed control at 200 ppm [3] | inhibition of growth at 200 ppm [4] | pest or weed control at 200 ppm [5] | pest or weed control at 200 ppm [6] | inhibition of growth at 200 ppm [8] | inhibition of growth at 200 ppm [9] | inhibition of growth at 200 ppm [10]

Cc1sc(Nc2cc(F)cc(F)c2)nc1C(=O)NC1CCC12CCCC2 (stereo not shown) [I.s.3, 2-(3,5-difluoroanilino)-5-methyl-N-spiro[3.4]octan-3-yl-thiazole-4-carboxamide]
≥ 80%: inhibition of growth at 200 ppm [1] | inhibition of growth at 200 ppm [2] | pest or weed control at 200 ppm [3] | pest or weed control at 200 ppm [5] | pest or weed control at 200 ppm [6] | pest or weed control at 200 µg/mL [7] | inhibition of growth at 200 ppm [8] | inhibition of growth at 200 ppm [9] | inhibition of growth at 200 ppm [10]

O=C(NC1CCC12CCC2)c1nc(Nc2cc(F)cc(F)c2)sc1Br (stereo not shown) [I.r.2, 5-bromo-2-(3,5-difluoroanilino)-N-spiro[3.3]heptan-7-yl-thiazole-4-carboxamide]
≥ 80%: inhibition of growth at 200 ppm [1] | inhibition of growth at 200 ppm [2] | pest or weed control at 200 ppm [3] | inhibition of growth at 200 ppm [4] | pest or weed control at 200 ppm [5] | pest or weed control at 200 ppm [6] | pest or weed control at 200 µg/mL [7] | inhibition of growth at 200 ppm [8] | inhibition of growth at 200 ppm [9] | inhibition of growth at 200 ppm [10]

Cc1sc(Nc2cc(F)cc(F)c2)nc1C(=O)NC(C)C1CCCCC1 (stereo not shown) [I.e.3, N-(1-cyclohexylethyl)-2-(3,5-difluoroanilino)-5-methyl-thiazole-4-carboxamide]
≥ 80%: inhibition of growth at 200 ppm [1] | inhibition of growth at 200 ppm [2] | pest or weed control at 200 ppm [3] | pest or weed control at 200 ppm [5] | pest or weed control at 200 ppm [6] | pest or weed control at 200 µg/mL [7] | inhibition of growth at 200 ppm [8] | inhibition of growth at 200 ppm [9] | inhibition of growth at 200 ppm [10]

CC(NC(=O)c1nc(Nc2cc(F)cc(F)c2)sc1Br)C1CCCCC1 (stereo not shown) [Compound I.e.2, 5-bromo-N-(1-cyclohexylethyl)-2-(3,5-difluoroanilino)thiazole-4-carboxamide]
≥ 80%: inhibition of growth at 200 ppm [1] | inhibition of growth at 200 ppm [2] | pest or weed control at 200 ppm [3] | inhibition of growth at 200 ppm [4] | pest or weed control at 200 ppm [6] | pest or weed control at 200 µg/mL [7] | inhibition of growth at 200 ppm [8] | inhibition of growth at 200 ppm [9] | inhibition of growth at 200 ppm [10]

Cc1sc(Nc2cc(F)cc(F)c2)nc1C(=O)NC1CCCC2(C)CCC12 (stereo not shown) [I.ah.3, 2-(3,5-difluoroanilino)-5-methyl-N-(6-methyl-2-bicyclo[4.2.0]octanyl)thiazole-4-carboxamide]
≥ 80%: inhibition of growth at 200 ppm [1] | inhibition of growth at 200 ppm [2] | inhibition of growth at 200 ppm [4] | inhibition of growth at 200 ppm [8] | inhibition of growth at 200 ppm [9] | inhibition of growth at 200 ppm [10]

Cc1sc(Nc2cc(F)cc(F)c2)nc1C(=O)NC1CCC12CCC2 (stereo not shown) [I.r.3, 2-(3,5-difluoroanilino)-5-methyl-N-spiro[3.3]heptan-7-yl-thiazole-4-carboxamide]
≥ 80%: inhibition of growth at 200 ppm [1] | inhibition of growth at 200 ppm [2] | pest or weed control at 200 ppm [3] | inhibition of growth at 200 ppm [4] | pest or weed control at 200 ppm [5] | pest or weed control at 200 ppm [6] | pest or weed control at 200 µg/mL [7] | inhibition of growth at 200 ppm [8] | inhibition of growth at 200 ppm [9] | inhibition of growth at 200 ppm [10]

Cc1sc(Nc2cc(F)cc(F)c2)nc1C(=O)NC1C2CCCC2C1(C)C (stereo not shown) [I.y.3, 2-(3,5-difluoroanilino)-N-(6,6-dimethyl-7-bicyclo[3.2.0]heptanyl)-5-methyl-thiazole-4-carboxamide]
≥ 80%: inhibition of growth at 200 ppm [1] | inhibition of growth at 200 ppm [2] | pest or weed control at 200 ppm [3] | pest or weed control at 200 ppm [5] | pest or weed control at 200 ppm [6] | inhibition of growth at 200 ppm [8] | inhibition of growth at 200 ppm [9] | inhibition of growth at 200 ppm [10]
